Laboratory results from patent US20210161997A1, “TREATING DISEASES VIA TARGETED MODULATION OF GENE SIGNALING NETWORKS” (Camp4 Therapeutics Corporation, priority 2018, published 2021).

Tests used:
Format in all cases: cell-based
SERPINC1 = assay: RNA-seq of SERPINC1 expression in compound-treated primary human hepatocytes; settings: significance FPKM ≥1, log 2(fold change) ≥0.5, q-value ≤0.05
Experimental: Human hepatocytes were obtained from two donors from Massachusetts General Hospital, namely MGH54 and MGH63, and one donor from Lonza, namely HUM4111B. Cryopreserved hepatocytes were cultured in plating media for 16 hours, transferred to maintenance media for 4 hours. Cultured on serum-free media for 2 hours, then a compound was added. The hepatocytes were maintained on the serum-free media for 16 hours prior to gene expression analysis. Primary human hepatocytes were stored in the vapor phase of a liquid nitrogen freezer (about -130° C.). Human hepatocytes cultured as described above were plated in 24-well format, adding 375,000 cells per well in a volume of 500 ul plating medium. Four hours before treatment, cells were washed with PBS and the medium was changed to either: fresh maintenance medium (complete) or modified maintenance medium. Compound stocks were prepared at 1000× final concentration and added in a 2-step dilution to the medium to reduce risk of a compound precipitating out of solution when added to the cells, and to ensure reasonable pipetting volumes. […] The plate was mixed by carefully swirling and after all wells were treated and returned to the incubator overnight. If desired, separate plates/wells were treated with vehicle-only controls and/or positive controls. If using multi-well plates, controls were included on each plate. After about 18 hours, cells were harvested for further analysis, e.g., ChIP-seq, RNA-seq, ATAC-seq, etc. This protocol is a modified version of the following protocols: MagMAX mirVana Total RNA Isolation Kit User Guide (Applied Biosystems #MAN0011131 Rev B.0), NEBNext Poly(A) mRNA Magnetic Isolation Module ([…]), and NEBNext Ultra Directional RNA Library Prep Kit for Illumina ([…]) (New England Biosystems #E74901). […] Two hundred μl of Lysis Binding Mix was used per well of the multiwell plate containing adherent cells (usually a 24-well plate). For mRNA isolation and library prep, the NEBNext Poly(A) mRNA Magnetic Isolation Module and Directional Prep kit was used. RNA isolated from cells above was quantified, and prepared in […] of each sample in 50 μl of nuclease-free water. This protocol may be run in microfuge tubes or in a 96-well plate. […] Genomic alignments were converted to transcriptome alignments based on reference transcript annotations from the Human GENCODE Gene Set release 24 (Harrow et al., Genome Res. […] Using unique and multimapped transcriptomic alignments, gene-level abundance estimates were computed using RSEM version 1.3.0 (Li and Dewey, BMC Bioinformatics (2011) 12:323) in a strand-aware manner, and including confidence interval sampling calculations, to arrive at posterior mean estimates (PME) of abundances (counts and normalized FPKM-fragments per kilobase of exon per million mapped fragments) from the underlying Bayesian model. Standard QC were applied (read integrity, mapping statistics, library complexity, fragment bias) to remove unsatisfactory samples. Differential gene expression was computed using the negative binomial model implemented by DESeq2 version 1.16.1 (Love et al., Genome Biol. (2014) 15(12):550). […] RNA-seq signals were also normalized by read depth and visualized using the UCSC browser. To identify small molecules that modulate target gene expression, primary human hepatocytes were prepared as a monoculture, and at least one small molecule compound was applied to the cells. RNA-seq was performed to determine the effects of the compounds on the expression of the target genes in hepatocytes. Fold change was calculated by dividing the level of expression in the cell system that had been perturbed by the level of expression in an unperturbed system.

UGT1A1 = assay: RNA-seq of UGT1A1 expression in compound-treated primary human hepatocytes
Procedure, shortened: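 Cryopreserved primary human hepatocytes from three donors were plated in 24-well format, then treated with compound diluted from 1000× stocks in serum-free maintenance medium for about 16–18 h. Poly(A) RNA-seq log2 fold change was computed against vehicle/pan-experiment controls. Significance required FPKM ≥1, log2FC ≥0.5 and q ≤0.05.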

CPOX = assay: RNA-seq of CPOX expression in compound-treated primary human hepatocytes; settings: RNA-seq, primary human hepatocytes; significance FPKM ≥0.5, log 2(fold change) ≥0.3, q-value ≤0.05
Experimental: Human hepatocytes were obtained from two donors from Massachusetts General Hospital, namely MGH54 and MGH63, and one donor from Lonza, namely HUM4111B. Cryopreserved hepatocytes were cultured in plating media for 16 hours, transferred to maintenance media for 4 hours. Cultured on serum-free media for 2 hours, then a compound was added. The hepatocytes were maintained on the serum-free media for 16 hours prior to gene expression analysis. Primary human hepatocytes were stored in the vapor phase of a liquid nitrogen freezer (about −130° C.).
Human hepatocytes cultured as described above were plated in 24-well format, adding 375,000 cells per well in a volume of 500 ul plating medium. Four hours before treatment, cells were washed with PBS and the medium was changed to either: fresh maintenance medium (complete) or modified maintenance medium.
Compound stocks were prepared at 1000× final concentration and added in a 2-step dilution to the medium to reduce risk of a compound precipitating out of solution when added to the cells, and to ensure reasonable pipetting volumes. One at a time, each compound was first diluted 10-fold in warm (about 37° C.) modified maintenance medium (initial dilution=ID), mixed by vortexing, and the ID was diluted 100-fold into the cell culture (e.g. 5.1 ul into 1 well of a 24-well plate containing 0.5 mL medium). The plate was mixed by carefully swirling and after all wells were treated and returned to the incubator overnight. If desired, separate plates/wells were treated with vehicle-only controls and/or positive controls. If using multi-well plates, controls were included on each plate. After about 18 hours, cells were harvested for further analysis, e.g., ChIP-seq, RNA-seq, ATAC-seq, etc.
This protocol is a modified version of the following protocols: MagMAX mirVana Total RNA Isolation Kit User Guide (Applied Biosystems #MAN0011131 Rev B.0), NEBNext Poly(A) mRNA Magnetic Isolation Module (E7490), and NEBNext Ultra Directional RNA Library Prep Kit for Illumina (E7420) (New England Biosystems #E74901).
The MagMAX mirVana kit instructions (the section titled “Isolate RNA from cells” on pages 14-17) were used for isolation of total RNA from cells in culture. Two hundred μl of Lysis Binding Mix was used per well of the multiwell plate containing adherent cells (usually a 24-well plate).
For mRNA isolation and library prep, the NEBNext Poly(A) mRNA Magnetic Isolation Module and Directional Prep kit was used. RNA isolated from cells above was quantified, and prepared in […] of each sample in 50 μl of nuclease-free water. This protocol may be run in microfuge tubes or in a 96-well plate.
Standard QC were applied (read integrity, mapping statistics, library complexity, fragment bias) to remove unsatisfactory samples. […] Log 2 fold change and significance values were computed using PME count data (with replicates explicitly modeled versus pan-experiment controls), median ratio normalized, using maximum likelihood estimation rather than maximum a posteriori, and disabling the use of Cook's distance cutoff when determining acceptable adjusted p-values. […] RNA-seq signals were also normalized by read depth and visualized using the UCSC browser.
To identify small molecules that modulate target gene expression, primary human hepatocytes were prepared as a monoculture, and at least one small molecule compound was applied to the cells.
RNA-seq was performed to determine the effects of the compounds on the expression of the target genes in hepatocytes. Fold change was calculated by dividing the level of expression in the cell system that had been perturbed by the level of expression in an unperturbed system. Changes in expression having a p-value ≤0.05 were considered significant.
Significance was defined as an FPKM ≥0.5 a log 2(fold change) ≥0.3, and a q-value of ≤0.05.

SMILES | SERPINC1 Fold Change (Log2) (SERPINC1) | UGT1A1 Fold Change (Log2) (UGT1A1) | CPOX Fold change (Log2) (CPOX)
S=C(NCc1ccc2c(c1)OCO2)N1CCN(c2ncnc3c2oc2ccccc23)CC1 [Amuvatinib] | 1.33 | 0.61 | 
O=C1CCC(N2C(=O)c3ccccc3C2=O)C(=O)N1 (stereo not shown) [Thalidomide] | 0.88 |  | 0.3
